SMILES strings stand for the structures.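 1) Cells in 96-well plates. 2) Compound, 48 h, 5 concentrations. 3) Linear interpolation between surrounding doses. 4) Unreached endpoint = highest concentration. The concentration for 50% growth inhibition is given as GI50.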 The source made the active and inactive calls. Rule as the data show it: active = GI50 up to about 1.1 µM and inactive = higher. Where only a bound is given, the exact number is not on record here.

Test systems include BT-549; HCT-15; HOP-62; Hs-578T; MCF7; MDA-N; MOLT-4; Malme-3M; NCI-H226; NCI-H23; NCI-H460; NCI/ADR-RES; PC-3; RXF 393; SF-539; SK-MEL-2; SK-MEL-5; UACC-62; CCRF-CEM.
Experiment in all cases: NCI tumour cell line growth inhibition, 48 h

With `Cc1ccc(Nc2nnc(-c3ccc4c(c3)OCO4)o2)c(C)c1`, the GI50 in the assay with BT-549 is > 100 µM (inactive); with HCT-15 it was greater than 100 µM; in the assay on HOP-62 it was > 100 µM (inactive); in the assay on Hs-578T it was > 100 µM (inactive); in the assay on MCF7 it was 38.8 µM (inactive); with MDA-N, > 100 µM (inactive). Besides, the GI50 in the assay with MOLT-4 is 1.71 µM (inactive); in the assay with Malme-3M, > 100 µM (inactive); in the assay with NCI-H226, > 100 µM (inactive); in the assay on NCI-H23 it was > 100 µM (inactive); in the assay with NCI-H460 it was > 100 µM (inactive); with NCI/ADR-RES, > 100 µM (inactive). In addition, the GI50 is 50.1 µM (inactive) with PC-3; > 100 µM (inactive) in the assay with RXF 393; 64.6 µM (inactive) in the assay on SF-539; > 100 µM (inactive) in the assay with SK-MEL-2; > 100 µM (inactive) with SK-MEL-5; 32.8 µM (inactive) with UACC-62.
`CCOc1ccc(NC(=O)C(=O)C2C(=O)Nc3ccccc3[S+]2[O-])cc1` (configuration not stated): the GI50 in the assay on BT-549 is > 100 µM (inactive); in the assay on CCRF-CEM, > 100 µM (inactive); in the assay with HCT-15, greater than 100 µM; in the assay with HOP-62, > 100 µM (inactive); in the assay on Hs-578T, > 100 µM (inactive); in the assay on MCF7, > 100 µM (inactive). The GI50 in the assay on MDA-N, with Malme-3M, in the assay on NCI-H226, in the assay with NCI-H23, in the assay with NCI-H460 and in the assay with NCI/ADR-RES was > 100 µM (inactive) throughout. The GI50 with PC-3, with RXF 393, in the assay with SF-539, with SK-MEL-2, in the assay on SK-MEL-5 and in the assay on UACC-62 was > 100 µM (inactive) each time.
With `O=c1cc(-c2ccccc2)[nH]c2cccc(S)c12`, the GI50 in the assay with BT-549 is 13.6 µM (inactive); in the assay on CCRF-CEM, 0.177 µM (active); with HCT-15, 0.344 µM; in the assay with HOP-62 it was 0.331 µM (active); in the assay on Hs-578T, 0.205 µM (active); in the assay with MCF7, 0.465 µM (active). Besides, the GI50 in the assay with MDA-N is 0.0246 µM (active); in the assay with MOLT-4 it was 0.37 µM (active); with Malme-3M, 0.153 µM (active); in the assay with NCI-H226, 0.406 µM (active); in the assay on NCI-H23, 0.445 µM (active); in the assay on NCI-H460, 0.301 µM (active). The GI50 in the assay on NCI/ADR-RES was 0.0796 µM (active); in the assay on PC-3, 0.123 µM (active); with RXF 393, 0.164 µM (active); in the assay with SF-539 it was 0.2 µM (active); with SK-MEL-5, 0.0944 µM (active); in the assay with UACC-62 it was 0.155 µM (active).
For the compound `Cc1ccc2c(=O)c(C(=O)Nn3c(C)csc3=S)c[nH]c2n1`, the GI50 in the assay with BT-549 was > 100 µM (inactive); with CCRF-CEM, > 100 µM (inactive); in the assay with HCT-15, greater than 100 µM; in the assay on HOP-62, > 100 µM (inactive); in the assay on Hs-578T, > 100 µM (inactive); in the assay on MCF7, > 100 µM (inactive). For the same compound, the GI50 in the assay on MDA-N is > 100 µM (inactive); in the assay on MOLT-4, > 100 µM (inactive); in the assay with Malme-3M, > 100 µM (inactive); in the assay on NCI-H226 it was 83 µM (inactive); in the assay with NCI-H23 it was > 100 µM (inactive); in the assay on NCI-H460, > 100 µM (inactive). The GI50 with NCI/ADR-RES, with PC-3, with RXF 393, in the assay with SK-MEL-2, with SK-MEL-5 and in the assay with UACC-62 was > 100 µM (inactive) each time.
For the compound `O=C(O)C(Br)C(Br)C(=O)O` (configuration not stated), the GI50 with BT-549 is > 100 µM (inactive); with HCT-15, greater than 100 µM; in the assay with HOP-62, > 100 µM (inactive); in the assay on Hs-578T, > 100 µM (inactive); in the assay with MCF7, > 100 µM (inactive); in the assay with MDA-N, > 100 µM (inactive). Besides, the GI50 in the assay on Malme-3M, in the assay on NCI-H226, with NCI-H23, in the assay on NCI-H460, with NCI/ADR-RES and in the assay with PC-3 was > 100 µM (inactive) in each case. In addition, the GI50 in the assay on RXF 393, in the assay on SF-539, in the assay with SK-MEL-2, in the assay on SK-MEL-5 and in the assay with UACC-62 was > 100 µM (inactive) in each case.
`O=C1NC(=O)/C(=C/c2ccc(S(=O)(=O)N/N=C\C(O)C(O)C(O)C(O)CO)cc2)N1` (configuration not stated): the GI50 is > 100 µM (inactive) in the assay on BT-549; > 100 µM (inactive) with CCRF-CEM; greater than 100 µM with HCT-15; > 100 µM (inactive) with HOP-62; > 100 µM (inactive) with Hs-578T; > 100 µM (inactive) with MCF7. For the same compound, the GI50 in the assay on MDA-N, in the assay with MOLT-4, in the assay with Malme-3M, in the assay with NCI-H226, in the assay with NCI-H23 and in the assay on NCI-H460 was > 100 µM (inactive) in each case. The GI50 in the assay on NCI/ADR-RES, in the assay on PC-3, in the assay with RXF 393, in the assay with SK-MEL-2, with SK-MEL-5 and in the assay with UACC-62 was > 100 µM (inactive) throughout.
Regarding `CC(C)(C)c1cc2c(O)c(c1)Cc1cc(C(C#N)(Cc3ccc4ccccc4c3)Cc3ccc4ccccc4c3)cc(c1O)Cc1cc(C(C)(C)C)cc(c1O)Cc1cc(C(C#N)(Cc3ccc4ccccc4c3)Cc3ccc4ccccc4c3)cc(c1O)C2`, the GI50 with BT-549 is > 100 µM (inactive); in the assay with CCRF-CEM, > 100 µM (inactive); with HCT-15, greater than 100 µM; with HOP-62, > 100 µM (inactive); in the assay with Hs-578T, > 100 µM (inactive); with MCF7, > 100 µM (inactive). The GI50 in the assay on MDA-N, in the assay on MOLT-4, in the assay with Malme-3M, with NCI-H226, in the assay on NCI-H23 and in the assay on NCI-H460 was > 100 µM (inactive) throughout. Besides, the GI50 in the assay with NCI/ADR-RES, in the assay on PC-3, with RXF 393, in the assay with SF-539, with SK-MEL-2 and in the assay with SK-MEL-5 was > 100 µM (inactive) in each case. For the same compound, the GI50 in the assay with UACC-62 is > 100 µM (inactive).
With `N#Cc1ccc(-c2nc3c(N)nc(-c4ccccc4)nc3o2)cc1`, the GI50 with BT-549 was > 100 µM (inactive); in the assay with CCRF-CEM it was > 10 µM (inactive); with HCT-15, greater than 100 µM; in the assay with HOP-62, 19.7 µM (inactive); in the assay with Hs-578T, > 100 µM (inactive); in the assay on MCF7 it was > 100 µM (inactive). In addition, the GI50 in the assay on MDA-N was > 100 µM (inactive); in the assay with MOLT-4, > 100 µM (inactive); with NCI-H226, > 100 µM (inactive); in the assay on NCI-H23 it was > 100 µM (inactive); in the assay on NCI-H460, > 100 µM (inactive); with NCI/ADR-RES, 40.3 µM (inactive). Also, the GI50 with PC-3 is > 100 µM (inactive); in the assay on RXF 393 it was 23.8 µM (inactive); in the assay with SF-539, 5.6 µM (inactive); in the assay on SK-MEL-2, > 100 µM (inactive); with SK-MEL-5, > 100 µM (inactive); in the assay with UACC-62, > 100 µM (inactive).
Consider `C=C(Cl)C(=C)CCC(Cl)C(C)C` (configuration not stated), for which the GI50 in the assay with BT-549, with CCRF-CEM, in the assay on HOP-62, in the assay with Hs-578T, with MCF7 and in the assay on MDA-N was > 100 µM (inactive) each time. Besides, the GI50 with MOLT-4, in the assay with Malme-3M, in the assay on NCI-H226, in the assay on NCI-H23, with NCI-H460 and with NCI/ADR-RES was > 100 µM (inactive) throughout. For the same compound, the GI50 in the assay on PC-3, in the assay on RXF 393, with SF-539, in the assay on SK-MEL-2, in the assay with SK-MEL-5 and with UACC-62 was > 100 µM (inactive) each time.
On to `COc1cc(CNNC(N)=S)cc(OC)c1OC`, for which the GI50 in the assay on BT-549 is 22.3 µM (inactive); in the assay with CCRF-CEM it was > 100 µM (inactive); with HCT-15, greater than 100 µM; in the assay with HOP-62 it was 90.6 µM (inactive); in the assay on Hs-578T, > 100 µM (inactive); in the assay with MCF7 it was > 100 µM (inactive). Moreover, the GI50 with MDA-N, with MOLT-4, in the assay with Malme-3M, in the assay on NCI-H226, with NCI-H23 and in the assay on NCI-H460 was > 100 µM (inactive) each time. In addition, the GI50 in the assay on NCI/ADR-RES, in the assay with PC-3, with RXF 393, in the assay on SF-539 and in the assay with SK-MEL-5 was > 100 µM (inactive) in each case.
Regarding `[O-][S+]1SC(=S)C2C=CC=NC21` (configuration not stated), the GI50 in the assay with BT-549 is 19 µM (inactive); with CCRF-CEM, > 100 µM (inactive); in the assay with HCT-15, 17.3 µM; with Hs-578T it was 20.7 µM (inactive); in the assay on MCF7 it was 17.5 µM (inactive); in the assay on MDA-N, 14.7 µM (inactive). In addition, the GI50 in the assay on MOLT-4 was 16.4 µM (inactive); with Malme-3M, 17.3 µM (inactive); in the assay with NCI-H226, 22.2 µM (inactive); in the assay with NCI-H23, 18.6 µM (inactive); in the assay on NCI-H460 it was 17.4 µM (inactive); in the assay with NCI/ADR-RES, 20.9 µM (inactive). Also, the GI50 is 16.8 µM (inactive) in the assay with PC-3; 18.3 µM (inactive) in the assay on RXF 393; 16 µM (inactive) in the assay with SF-539; 19.4 µM (inactive) with SK-MEL-2; 18.8 µM (inactive) in the assay with SK-MEL-5; 21.3 µM (inactive) in the assay with UACC-62.

(Values after ChEMBL document CHEMBL1201862, “PubChem BioAssay data set” (2004).)
